Laboratory results taken from PubChem BioAssay AID2060883 (Molecular Pharmacology Branch, DTP, NCI, 2025).
Several values for one entry are separate records, joined by “and”; a condition that tells them apart may be missing. Identical values can stand only once.

System: 843782-103-R-J1-PDC complex spheroid viability
Assay: Anticancer human tumor 843782-103-R-J1-PDC patient-derived lung adenocarcinoma cell line growth inhibition [RAS]
Details: for viability, T/C: stronger effect = lower value
Method in brief: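 Tumour cells grown as complex spheroids with HUVEC endothelial cells and mesenchymal stem cells, treated with RAS pathway inhibitor combinations. Each agent spans half-log steps from near clinical Cmax, or 10 microM where Cmax is unknown.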

[1] = curve of first compound, second compound 0.000949 µM
[2] = curve of first compound, second compound 0.003 µM
[3] = curve of first compound, second compound 0.00949 µM
[4] = curve of first compound, second compound 0.03 µM
[5] = curve of first compound, second compound 0.0949 µM
[6] = curve of first compound, second compound 0.3 µM
[7] = second compound 0.000949 µM, first compound 0.0316 µM
[8] = second compound 0.000949 µM, first compound 0.1 µM
[9] = second compound 0.000949 µM, first compound 0.316 µM
[10] = second compound 0.000949 µM, first compound 1 µM
[11] = second compound 0.000949 µM, first compound 3.16 µM
[12] = second compound 0.000949 µM, first compound 10 µM
[13] = second compound 0.003 µM, first compound 0.0316 µM
[14] = second compound 0.003 µM, first compound 0.1 µM
[15] = second compound 0.003 µM, first compound 0.316 µM
[16] = second compound 0.003 µM, first compound 1 µM
[17] = second compound 0.003 µM, first compound 3.16 µM
[18] = second compound 0.003 µM, first compound 10 µM
[19] = second compound 0.00949 µM, first compound 0.0316 µM
[20] = second compound 0.00949 µM, first compound 0.1 µM
[21] = second compound 0.00949 µM, first compound 0.316 µM
[22] = second compound 0.00949 µM, first compound 1 µM
[23] = second compound 0.00949 µM, first compound 3.16 µM
[24] = second compound 0.00949 µM, first compound 10 µM
[25] = second compound 0.03 µM, first compound 0.0316 µM
[26] = second compound 0.03 µM, first compound 0.1 µM
[27] = second compound 0.03 µM, first compound 0.316 µM
[28] = second compound 0.03 µM, first compound 1 µM
[29] = second compound 0.03 µM, first compound 3.16 µM
[30] = second compound 0.03 µM, first compound 10 µM
[31] = second compound 0.0949 µM, first compound 0.0316 µM
[32] = second compound 0.0949 µM, first compound 0.1 µM
[33] = second compound 0.0949 µM, first compound 0.316 µM
[34] = second compound 0.0949 µM, first compound 1 µM
[35] = second compound 0.0949 µM, first compound 3.16 µM
[36] = second compound 0.0949 µM, first compound 10 µM
[37] = second compound 0.3 µM, first compound 0.0316 µM
[38] = second compound 0.3 µM, first compound 0.1 µM
[39] = second compound 0.3 µM, first compound 0.316 µM
[40] = second compound 0.3 µM, first compound 1 µM
[41] = second compound 0.3 µM, first compound 3.16 µM
[42] = second compound 0.3 µM, first compound 10 µM
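Further: viability read after seven days of compound exposure.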

CCC(CC)c1cc(NC2CCC(N)C2)n2nccc2n1 (stereo not drawn) + CCn1c(-c2cc(N3CCN(C)CC3)cnc2C(C)OC)c2c3cc(ccc31)-c1csc(n1)CC(NC(=O)C1CC1C)C(=O)N1CCCC(N1)C(=O)OCC(C)(C)C2
IC50 [1]: 591 nM | IC50 [2]: 406 nM | IC50 [3]: < 31.6 nM | IC50 [4]: < 31.6 nM | IC50 [5]: < 31.6 nM | IC50 [6]: < 31.6 nM | viability, T/C [7]: 75.2% | viability, T/C [8]: 76.5% | viability, T/C [9]: 72.7% | viability, T/C [10]: 30.7% | viability, T/C [11]: 0.47% | viability, T/C [12]: 0.37% | viability, T/C [13]: 53.5% | viability, T/C [14]: 53.9% | viability, T/C [15]: 58.1% | viability, T/C [16]: 31.4% | viability, T/C [17]: 0.26% | viability, T/C [18]: 0.35% | viability, T/C [19]: 30.6% | viability, T/C [20]: 34.3% | viability, T/C [21]: 36.8% | viability, T/C [22]: 17.1% | viability, T/C [23]: 0.17% | viability, T/C [24]: 0.29% | viability, T/C [25]: 21.9% | viability, T/C [26]: 19% | viability, T/C [27]: 21.2% | viability, T/C [28]: 15.5% | viability, T/C [29]: 0.09% | viability, T/C [30]: 0.27% | viability, T/C [31]: 15.7% | viability, T/C [32]: 15% | viability, T/C [33]: 16.8% | viability, T/C [34]: 14.7% | viability, T/C [35]: 0.52% | viability, T/C [36]: 0.34% | viability, T/C [37]: 15% | viability, T/C [38]: 14.2% | viability, T/C [39]: 14.8% | viability, T/C [40]: 13.4% | viability, T/C [41]: 0.25% | viability, T/C [42]: 0.53%

CC(C)NCC(C(=O)N1CCN(c2ncnc3c2C(C)CC3O)CC1)c1ccc(Cl)cc1 (stereo not drawn)
viability, T/C (compound 0.0316 µM): 106% (2×) and 97% and 95.9% | viability, T/C (compound 0.1 µM): 96.2% [middle of 4 runs] | viability, T/C (compound 0.316 µM): 92.3% [middle of 4 runs] | viability, T/C (compound 1 µM): 62.4% [middle of 4 runs] | viability, T/C (compound 3.16 µM): 30% [middle of 4 runs] | viability, T/C (compound 10 µM): 13.7% [middle of 4 runs] | IC50 (curve of compound): 1.54 µM [middle of 4 runs]

CC1(O)CCCC1n1c(=O)c(C(F)F)cc2cnc(NC3CCN(S(C)(=O)=O)CC3)nc21 (stereo not drawn) + CCn1c(-c2cccnc2C(C)OC)c2c3cc(ccc31)N1CCOC(CC(NC(=O)C(C(C)C)N(C)C(=O)C3(F)CCN(C(=O)C#CC(C)(C)N(C)C)CC3)C(=O)N3CCCC(N3)C(=O)OCC(C)(C)C2)C1
IC50 [1]: 59 nM | IC50 [2]: 77.4 nM | IC50 [3]: 71.8 nM | IC50 [4]: 62.4 nM | IC50 [5]: 73.9 nM | IC50 [6]: 59.5 nM | viability, T/C [7]: 60.3% | viability, T/C [8]: 41.9% | viability, T/C [9]: 26.5% | viability, T/C [10]: 18.6% | viability, T/C [11]: 19% | viability, T/C [12]: 2.09% | viability, T/C [13]: 64.3% | viability, T/C [14]: 48.8% | viability, T/C [15]: 24.5% | viability, T/C [16]: 22.2% | viability, T/C [17]: 14.9% | viability, T/C [18]: 2.67% | viability, T/C [19]: 61.6% | viability, T/C [20]: 43.5% | viability, T/C [21]: 32.4% | viability, T/C [22]: 23.2% | viability, T/C [23]: 15.3% | viability, T/C [24]: 2.34% | viability, T/C [25]: 58.2% | viability, T/C [26]: 45.9% | viability, T/C [27]: 28.3% | viability, T/C [28]: 24.2% | viability, T/C [29]: 15.5% | viability, T/C [30]: 4.11% | viability, T/C [31]: 60.5% | viability, T/C [32]: 50.1% | viability, T/C [33]: 25.9% | viability, T/C [34]: 24.4% | viability, T/C [35]: 16.4% | viability, T/C [36]: 2.24% | viability, T/C [37]: 60.5% | viability, T/C [38]: 43.2% | viability, T/C [39]: 21.9% | viability, T/C [40]: 23% | viability, T/C [41]: 19.4% | viability, T/C [42]: 1.76%

CCN1CCN(Cc2ccc(Nc3ncc(F)c(-c4cc(F)c5nc(C)n(C(C)C)c5c4)n3)nc2)CC1 + CCn1c(-c2cccnc2C(C)OC)c2c3cc(ccc31)N1CCOC(CC(NC(=O)C(C(C)C)N(C)C(=O)C3(F)CCN(C(=O)C#CC(C)(C)N(C)C)CC3)C(=O)N3CCCC(N3)C(=O)OCC(C)(C)C2)C1
IC50 [1]: 197 nM | IC50 [2]: 291 nM | IC50 [3]: 237 nM | IC50 [4]: 406 nM | IC50 [5]: 329 nM | IC50 [6]: 298 nM | viability, T/C (second compound 0.000949 µM, first compound 0.00316 µM): 81% | viability, T/C (second compound 0.000949 µM, first compound 0.01 µM): 73.8% | viability, T/C [7]: 59% | viability, T/C [8]: 58.3% | viability, T/C [9]: 46.5% | viability, T/C [10]: 38.1% | viability, T/C (second compound 0.003 µM, first compound 0.00316 µM): 78.8% | viability, T/C (second compound 0.003 µM, first compound 0.01 µM): 69.4% | viability, T/C [13]: 62.8% | viability, T/C [14]: 67.1% | viability, T/C [15]: 45.4% | viability, T/C [16]: 37.8% | viability, T/C (second compound 0.00949 µM, first compound 0.00316 µM): 71.4% | viability, T/C (second compound 0.00949 µM, first compound 0.01 µM): 72.5% | viability, T/C [19]: 67.6% | viability, T/C [20]: 61.2% | viability, T/C [21]: 46.2% | viability, T/C [22]: 34.1% | viability, T/C (second compound 0.03 µM, first compound 0.00316 µM): 71.3% | viability, T/C (second compound 0.03 µM, first compound 0.01 µM): 72% | viability, T/C [25]: 71% | viability, T/C [26]: 58.8% | viability, T/C [27]: 56.4% | viability, T/C [28]: 35.6% | viability, T/C (second compound 0.0949 µM, first compound 0.00316 µM): 84.2% | viability, T/C (second compound 0.0949 µM, first compound 0.01 µM): 75.7% | viability, T/C [31]: 68.7% | viability, T/C [32]: 60.3% | viability, T/C [33]: 46.7% | viability, T/C [34]: 45% | viability, T/C (second compound 0.3 µM, first compound 0.00316 µM): 72% | viability, T/C (second compound 0.3 µM, first compound 0.01 µM): 66.1% | viability, T/C [37]: 56.5% | viability, T/C [38]: 66.8% | viability, T/C [39]: 46% | viability, T/C [40]: 38.8%
